In patent US20260344673A1, “A SOLID FORM FOR PREPARATION OF AN AQUEOUS DISPERSION, AQUEOUS DISPERSION, STABLE CONCENTRATE, COMBINED AQUEOUS DISPERSION, AND USES THEREOF” (priority 2022, published 2026):

Key:
Monilinia fructigena = test: Kirby-Bauer disk diffusion test, Monilinia fructigena; details: for % mycelium growth relative to the control / mycelium growth: V8 medium; for mycelium growth: control 5.4 cm; for EFFICACY W (Abbot): control W=0, no growth W=100
Experimental: (§1) The performance of the embodiments of the present inventions and their mixtures enriched with millbase (MFA) was analysed against the appropriate reference substance, i.e., a commercial product containing the analogue active substance with the same concentration. The prepared solutions were applied on the paper antibiograms. Then the soaked antibiograms were placed on the Petri Dishes (dish diameter 90 mm) with the growth medium for fungal pathogens V8. Composition of V8: agar, calcium carbonate and multi-vegetable juice. 3 fragments of mycelium of the tested pathogen (5×5 mm) were transplanted onto the prepared medium. As a result, the zones where the fungal growth was inhibited have been measured and compared respectively with the control sample and the analogue active substance sample.
(§2) Assessment was carried out by determining the infested area of the Petri dish in %. These percentages have been converted into efficacy (W) according to Abbot's formula as follows: W=(1−α/β)×100 • where: • α—corresponds to the mycelium/bacterial growth of each tested sample [%], • β—corresponds to the mycelium/bacterial growth in control sample [%].
(§3) In order to estimate if the combined action effect with the commercial fungicide, the W parameter of the mixture was compared with W parameter for particular commercial fungicide solo. Where W=0 the efficacy of the control sample (whole Petri dish covered with mycelium), and W=100 is when no mycelium growth observed.

Septoria tritici = test: Kirby-Bauer disk diffusion test, Septoria tritici
Experimental: as §1, §2, §3

Rhizoctonia solani = test: Kirby-Bauer disk diffusion test, Rhizoctonia solani; details: for % mycelium growth relative to the control / mycelium growth: V8 medium; for mycelium growth: control 8.6 cm; for EFFICACY W (Abbot): control W=0, no growth W=100
Experimental: as §1, §2, §3

Venturia inaegualis = test: Kirby-Bauer disk diffusion test, Venturia inaequalis; details: Venturia inaegualis
Experimental: (§4) The microbiological tests were carried out by applying Kirby-Bauer Disk Diffusion Susceptibility Test Protocol for antimicrobial activity. It is based on the formation of a concentration gradient in the growth medium during the diffusion of the active substance from the antibiogram disc (Kirby-Bauer method).
as §1, §2, §3

Sclerotinia sclerotiorum = test: Kirby-Bauer disk diffusion test, Sclerotinia sclerotiorum; details: for % mycelium growth relative to the control / mycelium growth: V8 medium; for mycelium growth: control 8.6 cm; for EFFICACY W (Abbot): control W=0, no growth W=100
Experimental: as §1, §2, §3

[1] = system: Alternaria infectoria/alternata; test: Kirby-Bauer disk diffusion test, Alternaria infectoria/alternata; details: for % mycelium growth relative to the control / mycelium growth: V8 medium; for mycelium growth: control 8.6 cm; for EFFICACY W (Abbot): control W=0, no growth W=100
Experimental: as §1, §2, §3

Fusarium oxysporum = test: Kirby-Bauer disk diffusion test, Fusarium oxysporum
Experimental: as §4, §1, §2, §3

Phytophthora megasperma = test: Kirby-Bauer disk diffusion test, Phytophthora megasperma
Experimental: as §4, §1, §2, §3

Verticillium longisporum = test: Kirby-Bauer disk diffusion test, Verticillium longisporum
Experimental: as §1, §2, §3

Septoria nodorum (1291) = test: Kirby-Bauer disk diffusion test, Septoria nodorum (1291)
Experimental: as §1, §2, §3

Fusarium equiseti = test: Kirby-Bauer disk diffusion test, Fusarium equiseti; details: for % mycelium growth relative to the control / mycelium growth: V8 medium; for mycelium growth: control 8.6 cm; for EFFICACY W (Abbot): control W=0, no growth W=100
Experimental: as §1, §2, §3

Phytophthora cactorum = test: Kirby-Bauer disk diffusion test, Phytophthora cactorum; parameters: % mycelium growth relative to the control: concentration or dose not given beside the values; details: for % mycelium growth relative to the control / mycelium growth: V8 medium; for mycelium growth: control 5.4 cm; for EFFICACY W (Abbot): control W=0, no growth W=100
Experimental: as §1, §2, §3

Trichoderma harzianum = test: Kirby-Bauer disk diffusion test, Trichoderma harzianum
Experimental: as §1, §2, §3

[2] = system: Colletotrichum gloeosporioides; test: Kirby-Bauer disk diffusion test, Colletotrichum gloeosporioides
Experimental: as §4, §1, §2, §3

Botrytis cinerea = test: Kirby-Bauer disk diffusion test, Botrytis cinerea
Experimental: as §1, §2, §3

Structure (SMILES): O=C(NCCc1ncc(C(F)(F)F)cc1Cl)c1ccccc1C(F)(F)F [Fluopyram (500)]
- % mycelium growth relative to the control (Monilinia fructigena): 30%
- mycelium growth (Monilinia fructigena): 1.6 cm
- EFFICACY W (Abbot) (Monilinia fructigena): 70
- % mycelium growth relative to the control (Septoria tritici; V8 medium): 0%
- mycelium growth (Septoria tritici; V8 medium, control 1.9 cm): 0 cm
- EFFICACY W (Abbot) (Septoria tritici; control W=0, no growth W=100): 100
- % mycelium growth relative to the control (Rhizoctonia solani): 100%
- mycelium growth (Rhizoctonia solani): 8.6 cm
- EFFICACY W (Abbot) (Rhizoctonia solani): 0
- % mycelium growth relative to the control (Venturia inaegualis; V8 medium): 0%
- mycelium growth (Venturia inaegualis; V8 medium, control 2.9 cm): 0 cm
- EFFICACY W (Abbot) (Venturia inaegualis; control W=0, no growth W=100): 100
- % mycelium growth relative to the control (Sclerotinia sclerotiorum): 100%
- mycelium growth (Sclerotinia sclerotiorum): 8.6 cm
- EFFICACY W (Abbot) (Sclerotinia sclerotiorum): 0
- % mycelium growth relative to the control [1]: 55%
- mycelium growth [1]: 4.7 cm
- EFFICACY W (Abbot) [1]: 45
- % mycelium growth relative to the control (Fusarium oxysporum; Fusarium oxysporum, V8 medium): 100%
- mycelium growth (Fusarium oxysporum; Fusarium oxysporum, V8 medium, control 8.6 cm): 8.6 cm
- EFFICACY W (Abbot) (Fusarium oxysporum; Fusarium oxysporum, control W=0, no growth W=100): 0
- % mycelium growth relative to the control (Phytophthora megasperma; Phytophthora megasperma, V8 medium): 65%
- mycelium growth (Phytophthora megasperma; Phytophthora megasperma, V8 medium, control 5.4 cm (8.6 cm in Table 25)): 3.5 cm
- EFFICACY W (Abbot) (Phytophthora megasperma; Phytophthora megasperma, control W=0, no growth W=100): 35
- % mycelium growth relative to the control (Verticillium longisporum; V8 medium): 95%
- mycelium growth (Verticillium longisporum; V8 medium, control 3.9 cm): 3.7 cm
- EFFICACY W (Abbot) (Verticillium longisporum; control W=0, no growth W=100): 5
- % mycelium growth relative to the control (Septoria nodorum (1291); V8 medium): 61%
- mycelium growth (Septoria nodorum (1291); V8 medium, control 5.4 cm): 3.3 cm
- EFFICACY W (Abbot) (Septoria nodorum (1291); control W=0, no growth W=100): 39
- % mycelium growth relative to the control (Fusarium graminearum; V8 medium): 66%
- mycelium growth (Fusarium graminearum; V8 medium, control 8.6 cm): 5.7 cm
- EFFICACY W (Abbot) (Fusarium graminearum; control W=0, no growth W=100): 34
- % mycelium growth relative to the control (Fusarium equiseti): 79%
- mycelium growth (Fusarium equiseti): 6.8 cm
- EFFICACY W (Abbot) (Fusarium equiseti): 21
- % mycelium growth relative to the control (Phytophthora cactorum): 72%
- mycelium growth (Phytophthora cactorum): 3.9 cm
- EFFICACY W (Abbot) (Phytophthora cactorum): 28

Structure (SMILES): COc1cc(C)c(C(=O)c2c(OC)ccc(Br)c2C)c(OC)c1OC [Metrafenone (150)]
- % mycelium growth relative to the control (Trichoderma harzianum; V8 medium): 80%
- mycelium growth (Trichoderma harzianum; V8 medium, control 8.6 cm): 6.9 cm
- EFFICACY W (Abbot) (Trichoderma harzianum; control W=0, no growth W=100): 20

Structure (SMILES): c1ccc2[nH]c(-c3cscn3)nc2c1 [Thiabendazole, thiabendazole, reference compound]
- activity at 500000 µg/mL (Fusarium oxysporum; Fusarium oxysporum, thiabendazole 500 g/L, read-out: % mycelium growth relative to the control): 84%
- inhibition of growth at 500000 µg/mL (Fusarium oxysporum; Fusarium oxysporum, thiabendazole 500 g/L, read-out: EFFICACY W (Abbot)): 16%
- mycelium growth (Fusarium oxysporum; thiabendazole 500 g/L): 7.2 cm
- activity at 500000 µg/mL ([2]; Colletotrichum gloeosporioides, thiabendazole 500 g/L, read-out: % mycelium growth relative to the control): 0%
- inhibition of growth at 500000 µg/mL ([2]; Colletotrichum gloeosporioides, thiabendazole 500 g/L, read-out: EFFICACY W (Abbot)): 100%
- mycelium growth ([2]; thiabendazole 500 g/L): 0 cm
- activity at 500000 µg/mL (Phytophthora megasperma; Phytophthora megasperma, thiabendazole 500 g/L, read-out: % mycelium growth relative to the control): 48%
- inhibition of growth at 500000 µg/mL (Phytophthora megasperma; Phytophthora megasperma, thiabendazole 500 g/L, read-out: EFFICACY W (Abbot)): 52%
- mycelium growth (Phytophthora megasperma; thiabendazole 500 g/L): 2.6 cm

Structure (SMILES): O=[N+]([O-])c1cc(C(F)(F)F)c(Cl)c([N+](=O)[O-])c1Nc1ncc(C(F)(F)F)cc1Cl [fluazinam (200)]
- % mycelium growth relative to the control (Monilinia fructigena): 0%
- mycelium growth (Monilinia fructigena): 0 cm
- EFFICACY W (Abbot) (Monilinia fructigena): 100
- % mycelium growth relative to the control (Rhizoctonia solani): 100%
- mycelium growth (Rhizoctonia solani): 8.6 cm
- EFFICACY W (Abbot) (Rhizoctonia solani): 0
- % mycelium growth relative to the control (Sclerotinia sclerotiorum): 100%
- mycelium growth (Sclerotinia sclerotiorum): 8.6 cm
- EFFICACY W (Abbot) (Sclerotinia sclerotiorum): 0
- % mycelium growth relative to the control [1]: 40%
- mycelium growth [1]: 3.4 cm
- EFFICACY W (Abbot) [1]: 60
- % mycelium growth relative to the control ([2]; Colletotrichum gloeosporioides, V8 medium): 0%
- mycelium growth ([2]; Colletotrichum gloeosporioides, V8 medium, control 5.4 cm): 0 cm
- EFFICACY W (Abbot) ([2]; Colletotrichum gloeosporioides, control W=0, no growth W=100): 100
- % mycelium growth relative to the control (Botrytis cinerea; V8 medium): 100%
- mycelium growth (Botrytis cinerea; V8 medium, control 8.6 cm): 8.6 cm
- EFFICACY W (Abbot) (Botrytis cinerea; control W=0, no growth W=100): 0
- % mycelium growth relative to the control (Fusarium equiseti): 80%
- mycelium growth (Fusarium equiseti): 6.9 cm
- EFFICACY W (Abbot) (Fusarium equiseti): 20
- % mycelium growth relative to the control (Phytophthora cactorum): 33%
- mycelium growth (Phytophthora cactorum): 1.8 cm
- EFFICACY W (Abbot) (Phytophthora cactorum): 67
